The values that follow come from patent US20210127678A1, “ESTERS OF HETEROCYCLIC COMPOUNDS HAVING A NEMATOCIDAL ACTIVITY, THEIR AGRONOMIC COMPOSITIONS AND THEIR USE” (ISAGRO, S.P.A., priority 2018, published 2021).

Structures are written as SMILES.

In data set [1] the test system is cucumbers, cv Chinese Long. As to the kind of experiment: Phytotoxicity on cucumbers, cv Chinese Long (soil treatment of potted plants). In kind it is in vivo, cucumber. The note with it: zero=no symptoms, 10=destroyed plant. As to the method:
New pots having a diameter of 15 cm were half filled with sterile soil. The portions of infested roots, previously cleaned up, were placed on the same in order to be able to correctly assess the degree of infestation and ensure that each pot contains the same nematic charge. 200-300 g of infested soil were subsequently added, then covered with a thin layer of sterile soil. The treatment was carried out by pouring 100 ml of solution on the surface of the soil, in which the product to be tested was dissolved. Tomato or cucumber seedlings at the stage of two or three true leaves were transplanted in the pots thus prepared, one or seven days after application. Different cultivars of tomato or cucumber were used, having a different sensitivity to the parasite and different growth times. In particular, a variety of ornamental tomatoes (cv Microtom) was used for assessing the final production, whose seedlings are small in size and are able to reach the ripeness of the fruit in pots and under greenhouse conditions in about two months The product was evaluated considering the possible phytotoxic effects that may compromise the development of the plant (in this case a zero-ten scale was used, according to which zero=no symptoms, 10=destroyed plant) and the effectiveness against nematodes. […] 2, 4, 12, 13, 17 included in general formula (I) and CR1, described in JP 2000038379 instead of the compound having general formula (I).

The test system of another data set is Meloidogyne sp. Kind of data set: Determination of nematocidal activity against Meloidogyne sp. on potted cucumbers, cv Chinese Long. The data set is classed as in vivo. Particulars: 30 days after transplantation; for % INFESTED ROOT / ROOT DEVELOPMENT / ALL INDEX scale 0-10: 4,000 g/hectare; for ROOT DEVELOPMENT: 100% = healthy comparative root; for ALL INDEX scale 0-10: Bridge-Page infestation scale. As to the method: Determination of Nematocidal Activity Against Meloidogyne sp. The tests aimed at testing the nematocidal activity of the product under examination were carried out using inoculae taken from a farming of Meloidogyne sp. maintained on potted tomato and cucumber plants and grown in greenhouses. To carry out the experiments, portions of roots having a good number of galls and soil were taken from the infested pots, in which larvae were present starting from the second stage of age. New pots having a diameter of 15 cm were half filled with sterile soil. The portions of infested roots, previously cleaned up, were placed on the same in order to be able to correctly assess the degree of infestation and ensure that each pot contains the same nematic charge. 200-300 g of infested soil were subsequently added, then covered with a thin layer of sterile soil. The treatment was carried out by pouring 100 ml of solution on the surface of the soil, in which the product to be tested was dissolved. Tomato or cucumber seedlings at the stage of two or three true leaves were transplanted in the pots thus prepared, one or seven days after application. Different cultivars of tomato or cucumber were used, having a different sensitivity to the parasite and different growth times. In particular, a variety of ornamental tomatoes (cv Microtom) was used for assessing the final production, whose seedlings are small in size and are able to reach the ripeness of the fruit in pots and under greenhouse conditions in about two months The containment capacity of the parasite was detected, 30 and 60 days after transplantation, considering the development of the root system (where 100% is the development achieved by the healthy comparative root) and the presence of galls on the roots. This was estimated using the infestation scale proposed by Bridge-Page, according to which the value zero corresponds to 0% of the root affected and the value 10 corresponds to 100% of infested root. […] 2, 4, 12, 13, 17 and the Compound CR1, on cucumbers, cv Chinese Long, at a dose of 4,000 g/hectare, effecting the survey 30 days after transplantation. […] 2, 4, 8, 12, 13, 17, 127, 129 and the Compound CR1, on cucumbers, cv Chinese Long, at doses of 2,000 g/hectare, 1,000 g/hectare and 500 g/hectare effecting the survey 30 days after transplantation.

As for `O=C(OCCC(F)=C(F)F)c1cccnc1C(F)(F)F` [Comp. Nr. 12], the “Phytotoxicity (scale 0-10)” value in data set [1] came to 0. In the data set with Meloidogyne sp., the “% INFESTED ROOT” value stood at 0%, the “ROOT DEVELOPMENT” value worked out at 95% and the “ALL INDEX scale 0-10” value came out at 0. For the same compound, in the data set with Meloidogyne sp. (dose applied 0.5 kg ai/ha), the “GALL INDEX (scale 0-10)” value is 3.1 and the “WEIGHT OF FRESH PLANT” value is 27 g. In addition, in the data set on Meloidogyne sp. (dose applied 1 kg ai/ha), the “GALL INDEX (scale 0-10)” value was 2.9 and the “WEIGHT OF FRESH PLANT” value is listed as 28 g. For the same compound, in the data set on Meloidogyne sp. (dose applied 2 kg ai/ha), the “GALL INDEX (scale 0-10)” value is 2.1 and the “WEIGHT OF FRESH PLANT” value was 31 g.

With `O=C(OCCC(F)=C(F)F)c1cccnc1` [CR1, pyridyl-3-carboxylate of 3,4,4-trifluoro-3-butenyl, reference compound], in data set [1], the “Phytotoxicity (scale 0-10)” value amounted to 0. In addition, in the data set on Meloidogyne sp., the “% INFESTED ROOT” value amounted to 8%, the “ROOT DEVELOPMENT” value is reported as 70% and the “ALL INDEX scale 0-10” value came to 0.8. Further, in the data set on Meloidogyne sp. (dose applied 0.5 kg ai/ha), the “GALL INDEX (scale 0-10)” value worked out at 4.8 and the “WEIGHT OF FRESH PLANT” value was found to be 23 g. Further, in the data set on Meloidogyne sp. (dose applied 1 kg ai/ha), the “GALL INDEX (scale 0-10)” value stood at 3.5 and the “WEIGHT OF FRESH PLANT” value worked out at 25 g. Moreover, in the data set with Meloidogyne sp. (dose applied 2 kg ai/ha), the “GALL INDEX (scale 0-10)” value was 2.8 and the “WEIGHT OF FRESH PLANT” value is given as 30 g.

With `O=C(OCCC(F)=C(F)F)c1cn2cc(C(F)(F)F)cc(Cl)c2n1` [Comp. Nr. 17], in data set [1], the “Phytotoxicity (scale 0-10)” value came to 0. In addition, in the data set with Meloidogyne sp., the “% INFESTED ROOT” value is recorded as 3%, the “ROOT DEVELOPMENT” value is listed as 85% and the “ALL INDEX scale 0-10” value is on record as 0.3. Moreover, in the data set on Meloidogyne sp. (dose applied 0.5 kg ai/ha), the “GALL INDEX (scale 0-10)” value was 3.3 and the “WEIGHT OF FRESH PLANT” value stood at 26 g. In addition, in the data set with Meloidogyne sp. (dose applied 1 kg ai/ha), the “GALL INDEX (scale 0-10)” value came out at 2.8 and the “WEIGHT OF FRESH PLANT” value turned out to be 28 g. Also, in the data set on Meloidogyne sp. (dose applied 2 kg ai/ha), the “GALL INDEX (scale 0-10)” value was 2.2 and the “WEIGHT OF FRESH PLANT” value amounted to 31 g.

For `Cc1nc(C(F)F)c(C(=O)OCCC(F)=C(F)F)s1` [Comp. Nr. 2, 2-methyl-4-difluoromethyl-thiazole-5-carboxylate of 3,4,4-trifluoro-3-butenyl], in data set [1], the “Phytotoxicity (scale 0-10)” value came out at 0. Moreover, in the data set on Meloidogyne sp., the “% INFESTED ROOT” value amounted to 3%, the “ROOT DEVELOPMENT” value stood at 90% and the “ALL INDEX scale 0-10” value is recorded as 0.3. Besides, in the data set with Meloidogyne sp. (dose applied 0.5 kg ai/ha), the “GALL INDEX (scale 0-10)” value came out at 2.8 and the “WEIGHT OF FRESH PLANT” value was found to be 36 g. In the data set with Meloidogyne sp. (dose applied 1 kg ai/ha), the “GALL INDEX (scale 0-10)” value is listed as 2.6 and the “WEIGHT OF FRESH PLANT” value is listed as 37 g. In the data set on Meloidogyne sp. (dose applied 2 kg ai/ha), the “GALL INDEX (scale 0-10)” value worked out at 1.4 and the “WEIGHT OF FRESH PLANT” value came out at 35 g.

As to `O=C(OCCC(F)=C(F)F)c1cncnc1` [Comp. Nr. 127], the “GALL INDEX (scale 0-10)” value with Meloidogyne sp. (dose applied 0.5 kg ai/ha) worked out at 3.4; in the data set on Meloidogyne sp. (dose applied 1 kg ai/ha) it was 2.1; with Meloidogyne sp. (dose applied 2 kg ai/ha) it was 0.9. Moreover, the “WEIGHT OF FRESH PLANT” value came out at 26 g with Meloidogyne sp. (dose applied 0.5 kg ai/ha), 29 g with Meloidogyne sp. (dose applied 1 kg ai/ha) and 36 g with Meloidogyne sp. (dose applied 2 kg ai/ha).

Consider `Cc1cc(C(=O)OCCC(F)=C(F)F)no1` [Comp. Nr. 129], for which the “GALL INDEX (scale 0-10)” value with Meloidogyne sp. (dose applied 0.5 kg ai/ha) stood at 3.6; in the data set on Meloidogyne sp. (dose applied 1 kg ai/ha), 2.4; with Meloidogyne sp. (dose applied 2 kg ai/ha) it was 0.9. Also, the “WEIGHT OF FRESH PLANT” value in the data set on Meloidogyne sp. (dose applied 0.5 kg ai/ha) is 25 g; in the data set with Meloidogyne sp. (dose applied 1 kg ai/ha), 26 g; with Meloidogyne sp. (dose applied 2 kg ai/ha), 35 g.

Regarding `O=C(OCCC(F)=C(F)F)c1csc(C(F)(F)F)n1` [Comp. Nr. 8], the figures for the “GALL INDEX (scale 0-10)” value in the data set on Meloidogyne sp. (dose applied 0.5 kg ai/ha), in the data set on Meloidogyne sp. (dose applied 1 kg ai/ha) and with Meloidogyne sp. (dose applied 2 kg ai/ha) were 2.5, 2.3 and 1.2, respectively. The “WEIGHT OF FRESH PLANT” value with Meloidogyne sp. (dose applied 0.5 kg ai/ha) was determined as 25 g; in the data set with Meloidogyne sp. (dose applied 1 kg ai/ha), 27 g; with Meloidogyne sp. (dose applied 2 kg ai/ha) it was 37 g.

Turning to `Cn1cc(C(=O)OCCC(F)=C(F)F)c(C(F)F)n1` [Comp. Nr. 13], the “Phytotoxicity (scale 0-10)” value in data set [1] worked out at 0. Further, in the data set with Meloidogyne sp., the “% INFESTED ROOT” value came to 0%, the “ROOT DEVELOPMENT” value turned out to be 95% and the “ALL INDEX scale 0-10” value turned out to be 0. Moreover, in the data set on Meloidogyne sp. (dose applied 0.5 kg ai/ha), the “GALL INDEX (scale 0-10)” value turned out to be 2.1 and the “WEIGHT OF FRESH PLANT” value stood at 36 g. Further, in the data set on Meloidogyne sp. (dose applied 1 kg ai/ha), the “GALL INDEX (scale 0-10)” value is on record as 1.2 and the “WEIGHT OF FRESH PLANT” value came to 38 g. Also, in the data set on Meloidogyne sp. (dose applied 2 kg ai/ha), the “GALL INDEX (scale 0-10)” value is listed as 1.2 and the “WEIGHT OF FRESH PLANT” value was found to be 39 g.

On to `Cc1nnc(C(=O)OCCC(F)=C(F)F)s1` [Comp. Nr. 4, 5-methyl-1,3,4-thiadiazole-2-carboxylate of 3,4,4-trifluoro-3-butenyl], for which the “Phytotoxicity (scale 0-10)” value in data set [1] turned out to be 0. For the same compound, in the data set on Meloidogyne sp., the “% INFESTED ROOT” value is on record as 3%, the “ROOT DEVELOPMENT” value was determined as 90% and the “ALL INDEX scale 0-10” value was found to be 0.3. Moreover, in the data set with Meloidogyne sp. (dose applied 0.5 kg ai/ha), the “GALL INDEX (scale 0-10)” value came out at 2.2 and the “WEIGHT OF FRESH PLANT” value is 35 g. For the same compound, in the data set with Meloidogyne sp. (dose applied 1 kg ai/ha), the “GALL INDEX (scale 0-10)” value is 1.9 and the “WEIGHT OF FRESH PLANT” value turned out to be 37 g. Moreover, in the data set on Meloidogyne sp. (dose applied 2 kg ai/ha), the “GALL INDEX (scale 0-10)” value turned out to be 1.9 and the “WEIGHT OF FRESH PLANT” value is 34 g.
